In patent publication US20240116985A1, “STAPLED PEPTIDES AND METHODS THEREOF” (priority 2020, published 2024) one finds IC50 data, which are given here for twelve molecules.

Test [1] has as its target T1, beta-catenin/TCF4 engagement (Homo sapiens, UniProt P35222).
T1 construct: expressed in transfected cells; host or cells: HEK293
T1 sequence (P35222 1-781): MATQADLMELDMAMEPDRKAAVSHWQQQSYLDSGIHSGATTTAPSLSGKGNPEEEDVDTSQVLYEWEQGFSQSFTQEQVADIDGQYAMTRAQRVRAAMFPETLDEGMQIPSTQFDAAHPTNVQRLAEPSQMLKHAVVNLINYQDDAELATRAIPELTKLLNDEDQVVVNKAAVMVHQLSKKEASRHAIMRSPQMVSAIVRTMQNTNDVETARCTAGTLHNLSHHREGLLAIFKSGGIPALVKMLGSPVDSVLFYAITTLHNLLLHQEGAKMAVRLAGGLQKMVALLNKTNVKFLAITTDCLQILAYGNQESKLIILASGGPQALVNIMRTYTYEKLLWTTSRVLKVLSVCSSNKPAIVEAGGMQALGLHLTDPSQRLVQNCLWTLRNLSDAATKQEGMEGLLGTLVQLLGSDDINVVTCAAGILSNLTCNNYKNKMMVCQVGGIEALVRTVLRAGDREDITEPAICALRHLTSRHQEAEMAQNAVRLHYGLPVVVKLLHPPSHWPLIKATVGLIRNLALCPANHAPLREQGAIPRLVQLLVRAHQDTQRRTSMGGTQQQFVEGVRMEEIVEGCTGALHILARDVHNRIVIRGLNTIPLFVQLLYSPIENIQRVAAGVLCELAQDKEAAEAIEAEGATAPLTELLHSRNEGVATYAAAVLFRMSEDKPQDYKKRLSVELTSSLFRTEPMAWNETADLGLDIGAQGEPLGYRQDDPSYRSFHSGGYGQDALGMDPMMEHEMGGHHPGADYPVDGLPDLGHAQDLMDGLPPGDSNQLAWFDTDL
Briefly: Nano-BRET target engagement assay (B-cat-Halo & TCF4-Luc in HEK293 cells). Format: cell-based. Conditions: read-out: NanoBRET Abs IC50.

In test [2] the target is T2, full-length beta-Catenin (Uniprot ID P35222) (Homo sapiens, UniProt P35222).
T2 construct: 10 nM full-length beta-Catenin (Uniprot ID P35222)
T2 sequence (P35222 1-781): T1 sequence (P35222 1-781)
In words: Fluorescence polarization IC50 (beta-catenin / 5FAM-TCF4 10-53 competition). Format: binding. Particulars: fluorescence polarization; read-out: beta-Catenin FP IC50. On the technique in general: Fluorescence polarisation rises when a labelled molecule tumbles more slowly, as on binding a larger partner.

Structures are written as SMILES. Like-named read-outs stand apart in the source and are kept apart here.

Usually IC50 stands for the midpoint of a concentration-inhibition curve. Consider `CCCC[C@@H]1NC(=O)[C@H](Cc2ccccc2)NC(=O)[C@H](C)NC(=O)C(C)(C)NC(=O)[C@H](Cc2cccc(C(=O)O)c2)NC(=O)[C@H](CC(=O)O)NC(=O)C2(CCCC=CCCCOC(=O)N3CC[C@@](C(=O)N[C@@H](Cc4ccsc4)C(=O)N[C@@H](Cc4csc5ccccc45)C(=O)N[C@@H](CCC(=O)NCC)C(N)=O)(C3)NC1=O)CCCC=CC[C@]1(CCCN1C(C)=O)C(=O)N[C@@H](CC(=O)O)C(=O)N[C@@H](CC(C)(C)C)C(=O)N2` (stereo partly drawn) [I-2552, Ac-PL3-Asp-Npg-B5-Asp-3COOHF-Aib-Ala-Phe-nLeu-PyrS2-3Thi-BztA-NHEt]GlnR-NH2], for which the values for the IC50 in test [1] (absolute IC50) and in test [2] were 10400 nM and 12 nM, respectively.
The corresponding values for `CCCC[C@@H]1NC(=O)[C@H](Cc2ccccc2)NC(=O)[C@H](C)NC(=O)C(C)(C)NC(=O)[C@H](Cc2cccc(C(=O)O)c2)NC(=O)[C@H](CC(=O)O)NC(=O)C2(CCCC=CCCCOC(=O)N3CC[C@@](C(=O)N[C@@H](Cc4ccsc4)C(=O)N[C@@H](Cc4csc5ccccc45)C(=O)N[C@@H](CCC(=O)N4CCOCC4)C(N)=O)(C3)NC1=O)CCCC=CC[C@]1(CCCN1C(C)=O)C(=O)N[C@@H](CC(=O)O)C(=O)N[C@@H](CC(C)(C)C)C(=O)N2` (stereo partly drawn) [I-2553, Ac-PL3-Asp-Npg-B5-Asp-3COOHF-Aib-Ala-Phe-nLeu-PyrS2-3Thi-BztA-[Morph]GlnR-NH2] are 8200 nM and 10 nM.
The corresponding values for `CCCC[C@@H]1NC(=O)[C@H](Cc2ccccc2)NC(=O)[C@H](C)NC(=O)C(C)(C)NC(=O)[C@H](Cc2cccc(C(=O)O)c2)NC(=O)[C@H](CC(=O)O)NC(=O)C2(CCCC=CCCCOC(=O)N3CC[C@@](C(=O)N[C@@H](Cc4ccsc4)C(=O)N[C@@H](Cc4csc5ccccc45)C(=O)N[C@@H](CCC(=O)N(CCOC)CCOC)C(N)=O)(C3)NC1=O)CCCC=CC[C@]1(CCCN1C(C)=O)C(=O)N[C@@H](CC(=O)O)C(=O)N[C@@H](CC(C)(C)C)C(=O)N2` (stereo partly drawn) [I-2554, Ac-PL3-Asp-Npg-B5-Asp-3COOHF-Aib-Ala-Phe-nLeu-PyrS2-3Thi-BztA-[bismethoxyethylamine]GlnR-NH2] are 3300 nM and 8 nM.
For the molecule `CCCC[C@@H]1NC(=O)[C@H](Cc2ccccc2)NC(=O)[C@H](C)NC(=O)C(C)(C)NC(=O)[C@H](Cc2cccc(C(=O)O)c2)NC(=O)[C@H](CC(=O)O)NC(=O)C2(CCCC=CCCCOC(=O)N3CC[C@@](C(=O)N[C@@H](Cc4ccsc4)C(=O)N[C@@H](Cc4csc5ccccc45)C(=O)N[C@@H](CCC(=O)N4CCN(C(C)=O)CC4)C(N)=O)(C3)NC1=O)CCCC=CC[C@]1(CCCN1C(C)=O)C(=O)N[C@@H](CC(=O)O)C(=O)N[C@@H](CC(C)(C)C)C(=O)N2` (stereo partly drawn) [I-2556, Ac-PL3-Asp-Npg-B5-Asp-3COOHF-Aib-Ala-Phe-nLeu-PyrS2-3Thi-BztA-[AcPpz]GlnR-NH2], the IC50 was 7000 nM in test [1] (absolute IC50) and 6 nM in test [2].
Turning to `CCCC[C@@H]1NC(=O)[C@H](Cc2ccccc2)NC(=O)[C@H](C)NC(=O)C(C)(C)NC(=O)[C@H](Cc2cccc(C(=O)O)c2)NC(=O)[C@H](CC(=O)O)NC(=O)C2(CCCC=CCCCOC(=O)N3CC[C@@](C(=O)N[C@@H](Cc4ccsc4)C(=O)N[C@@H](Cc4csc5ccccc45)C(=O)N[C@@H](CCC(=O)N4CCC(C(F)(F)F)CC4)C(N)=O)(C3)NC1=O)CCCC=CC[C@]1(CCCN1C(C)=O)C(=O)N[C@@H](CC(=O)O)C(=O)N[C@@H](CC(C)(C)C)C(=O)N2` (stereo partly drawn) [I-2557, Ac-PL3-Asp-Npg-B5-Asp-3COOHF-Aib-Ala-Phe-nLeu-PyrS2-3Thi-BztA-4F3CPip]GlnR-NH2], the values for the IC50 in test [1] (absolute IC50) and in test [2] were 19600 nM and 29 nM, respectively.
On to `CC[C@@H]1NC(=O)[C@H](Cc2ccccc2)NC(=O)[C@H](C)NC(=O)C(C)(C)NC(=O)[C@H](Cc2cccc(C(=O)O)c2)NC(=O)[C@H](CC(=O)O)NC(=O)C2(CCCC=CCCCOC(=O)N3CC[C@@](C(=O)N[C@@H](Cc4ccsc4)C(=O)N[C@@H](Cc4csc5ccccc45)C(=O)N[C@@H](CCC(=O)N4CCOCC4)C(N)=O)(C3)NC1=O)CCCC=CC[C@]1(CCCN1C(C)=O)C(=O)N[C@@H](CC(=O)O)C(=O)N[C@@H](CC(C)(C)C)C(=O)N2` (stereo partly drawn) [I-2558, Ac-PL3-Asp-Npg-B5-Asp-3COOHF-Aib-Ala-Phe-Abu-PyrS2-3Thi-BztA-[Morph]GlnR-NH2], for which the half-maximal inhibitory concentration (IC50) came out at 14700 nM in test [1] (absolute IC50) and 7 nM in test [2].
The corresponding values for `CC[C@@H]1NC(=O)[C@H](Cc2ccccc2)NC(=O)[C@H](C)NC(=O)C(C)(C)NC(=O)[C@H](Cc2cccc(C(=O)O)c2)NC(=O)[C@H](CC(=O)O)NC(=O)C2(CCCC=CCCCOC(=O)N3CC[C@@](C(=O)N[C@@H](Cc4ccsc4)C(=O)N[C@@H](Cc4csc5ccccc45)C(=O)N[C@@H](CCC(=O)N(CCOC)CCOC)C(N)=O)(C3)NC1=O)CCCC=CC[C@]1(CCCN1C(C)=O)C(=O)N[C@@H](CC(=O)O)C(=O)N[C@@H](CC(C)(C)C)C(=O)N2` (stereo partly drawn) [I-2559, Ac-PL3-Asp-Npg-B5-Asp-3COOHF-Aib-Ala-Phe-Abu-PyrS2-3Thi-BztA-[bismethoxyethylamine]GlnR-NH2] are 3800 nM and 8 nM.
Regarding `CC[C@@H]1NC(=O)[C@H](Cc2ccccc2)NC(=O)[C@H](C)NC(=O)C(C)(C)NC(=O)[C@H](Cc2cccc(C(=O)O)c2)NC(=O)[C@H](CC(=O)O)NC(=O)C2(CCCC=CCCCOC(=O)N3CC[C@@](C(=O)N[C@@H](Cc4ccsc4)C(=O)N[C@@H](Cc4csc5ccccc45)C(=O)N[C@@H](CCC(=O)N4CCC(N5CCCCC5)CC4)C(N)=O)(C3)NC1=O)CCCC=CC[C@]1(CCCN1C(C)=O)C(=O)N[C@@H](CC(=O)O)C(=O)N[C@@H](CC(C)(C)C)C(=O)N2` (stereo partly drawn) [I-2560, Ac-PL3-Asp-Npg-B5-Asp-3COOHF-Aib-Ala-Phe-Abu-PyrS2-3Thi-BztA-[4Pippip]GlnR-NH2], the IC50 in test [1] (absolute IC50) turned out to be 19300 nM; in test [2] it was 9 nM.
For `CC[C@@H]1NC(=O)[C@H](Cc2ccccc2)NC(=O)[C@H](C)NC(=O)C(C)(C)NC(=O)[C@H](Cc2cccc(C(=O)O)c2)NC(=O)[C@H](CC(=O)O)NC(=O)C2(CCCC=CCCCOC(=O)N3CC[C@@](C(=O)N[C@@H](Cc4ccsc4)C(=O)N[C@@H](Cc4csc5ccccc45)C(=O)N[C@@H](CCC(=O)N4CCN(C(C)=O)CC4)C(N)=O)(C3)NC1=O)CCCC=CC[C@]1(CCCN1C(C)=O)C(=O)N[C@@H](CC(=O)O)C(=O)N[C@@H](CC(C)(C)C)C(=O)N2` (stereo partly drawn) [I-2561, Ac-PL3-Asp-Npg-B5-Asp-3COOHF-Aib-Ala-Phe-Abu-PyrS2-3Thi-BztA-[AcPpz]GlnR-NH2] the same measures were 7200 nM and 5 nM.
In the case of `CC(=O)N[C@]1(C)CC=CCCCC2(CCCC=CCCCOC(=O)N3CC[C@@](C(=O)N[C@@H](Cc4ccccc4C(F)(F)F)C(=O)N[C@@H](Cc4csc5ccccc45)C(=O)N[C@@H](CCC(N)=O)C(N)=O)(C3)NC(=O)[C@H](CC(C)C)NC(=O)[C@H](Cc3ccccc3)NC(=O)[C@H](C)NC(=O)[C@H](C)NC(=O)[C@H](Cc3cccc(C(=O)O)c3)NC(=O)[C@H](CC(=O)O)NC2=O)NC(=O)[C@H](CC(C)(C)C)NC(=O)[C@H](CC(=O)O)NC1=O` (stereo partly drawn) [I-2563, Ac-R3-Asp-Npg-B5-Asp-3COOHF-Ala-Ala-Phe-Leu-PyrS2-2F3MeF-BztA-Gln-NH2], the figures for the IC50 in test [1] (absolute IC50) and in test [2] were 17000 nM and 48 nM, respectively.
For the molecule `CC(=O)N[C@]1(C)CCCC=CCCCC2(CCCC=CCCCOC(=O)N3CC[C@@](C(=O)N[C@@H](Cc4ccccc4C(F)(F)F)C(=O)N[C@@H](Cc4csc5ccccc45)C(=O)N[C@@H](CCC(N)=O)C(N)=O)(C3)NC(=O)[C@H](CC(C)C)NC(=O)[C@H](Cc3ccccc3)NC(=O)[C@H](C)NC(=O)[C@H](C)NC(=O)[C@H](Cc3cccc(C(=O)O)c3)NC(=O)[C@H](CC(=O)O)NC2=O)NC(=O)[C@H](CC(C)(C)C)NC(=O)[C@H](CC(=O)O)NC1=O` (stereo partly drawn) [I-2565, Ac-R5-Asp-Npg-B5-Asp-3COOHF-Ala-Ala-Phe-Leu-PyrS2-2F3MeF-BztA-Gln-NH2], the IC50 in test [1] was determined as 21000 nM; in test [2], 90 nM.
With `CC(=O)N[C@]1(C)CCCCCCCCC2(CCCCCCCCOC(=O)N3CC[C@@](C(=O)N[C@@H](Cc4ccccc4C(F)(F)F)C(=O)N[C@@H](Cc4csc5ccccc45)C(=O)N[C@@H](CCC(N)=O)C(N)=O)(C3)NC(=O)[C@H](CC(C)C)NC(=O)[C@H](Cc3ccccc3)NC(=O)[C@H](C)NC(=O)[C@H](C)NC(=O)[C@H](Cc3cccc(C(=O)O)c3)NC(=O)[C@H](CC(=O)O)NC2=O)NC(=O)[C@H](CC(C)(C)C)NC(=O)[C@H](CC(=O)O)NC1=O` (stereo partly drawn) [I-2571, Ac-R5-Asp-Npg-B5-Asp-3COOHF-Ala-Ala-Phe-Leu-PyrS2-2F3MeF-BztA-Gln-NH2], the IC50 came to 24000 nM in test [1] and 42 nM in test [2].
